Assay results as given in ChEMBL document CHEMBL4311969, “Polygala tenuifolia-Acori tatarinowii herbal pair as an inspiration for substituted cinnamic α-asaronol esters: Design, synthesis, anticonvulsant activity, and inhibition of lactate dehydrogenase study” (Eur J Med Chem, 2019).
“And” between values parts separate entries of the source, which are not always exact repeats. Equal values may be shown once. The source made the active and inactive calls. The calls are words filed in the database; no cut-off is given here.

Columns and labels:
[1] = Neurotoxicity against Kunming mouse assessed as time remained in rod at 100 mg/kg, ip administered 0.5 to 2 hrs by rotarod test; type: toxicity, organism-based; conditions: in vivo
Homo sapiens [2] = organism: Homo sapiens; assay: Inhibition of human LDH5 at 0.5 mM using sodium pyruvate as substrate by UV-VIS spectrophotometry method relative to control
Mus musculus [3] = assay: Anticonvulsant activity in Kunming mouse assessed as MES-induced hind limb extension at 100 mg/kg, ip administered 0. 5 to 4 hrs before MES stimulation relative to control; type: functional
Mus musculus [4] = assay: Anticonvulsant activity in Kunming mouse assessed as MES-induced hind limb extension at 100 mg/kg, ip administered 0. 5 to 2 hrs before MES stimulation; type: functional, organism-based
Homo sapiens [5] = organism: Homo sapiens; assay: Inhibition of human LDH1 at 0.5 mM using sodium pyruvate as substrate by UV-VIS spectrophotometry method relative to control
[6] = Protective index, ratio of TD50 for neurotoxicity against ip dosed Kunming mouse assessed as time remained in rod measured at 0.5 hrs by rotarod test to ED50 for anticonvulsant activity in ip dosed Kunming mouse assessed as MES-induced hind limb extension administered 0.5 hrs; type: toxicity, organism-based; conditions: in vivo, read-out: PI
Mus musculus [7] = assay: Anticonvulsant activity in Kunming mouse assessed as MES-induced hind limb extension at 50 mg/kg, ip administered 0.5 to 4 hrs before MES stimulation relative to control; type: functional
[8] = Neurotoxicity against ip dosed Kunming mouse assessed as time remained in rod measured at 0.5 hrs by rotarod test; type: toxicity, organism-based; conditions: in vivo
[9] = (§1) Protective index, ratio of TD50 for neurotoxicity against ip dosed Kunming mouse assessed as time remained in rod measured at 0.5 hrs by rotarod test to ED50 for anticonvulsant activity in ip dosed Kunming mouse assessed as reduction in Sc3-MP-induced seizure administered 0.5 hrs before Sc3-MP stimulation; type: toxicity, organism-based; conditions: in vivo, read-out: PI
Mus musculus [10] = assay: Anticonvulsant activity in Kunming mouse assessed as reduction in ScPTZ-induced clonic seizure at 100 mg/kg, ip administered 0.5 hrs before ScPTZ stimulation relative to control; type: functional; parameters: scale not given: the % may be the effect or the level left
Mus musculus [11] = assay: Anticonvulsant activity in Kunming mouse assessed as reduction in Sc3-MP-induced clonic seizure rate at 300 mg/kg, ip administered 0.5 hrs before Sc3-MP stimulation relative to control; type: functional; parameters: scale not given: the % may be the effect or the level left
Mus musculus [12] = assay: Anticonvulsant activity in Kunming mouse assessed as reduction in ScPTZ-induced seizure at 100 mg/kg, ip administered 0.25 to 2 hrs before ScPTZ stimulation relative to control; type: functional; parameters: scale not given: the % may be the effect or the level left
Mus musculus [13] = assay: Anticonvulsant activity in Kunming mouse assessed as reduction in ScPTZ-induced tonic seizure rate at 100 mg/kg, ip administered 0.5 hrs before ScPTZ stimulation relative to control; type: functional; parameters: scale not given: the % may be the effect or the level left
Mus musculus [14] = assay: Anticonvulsant activity in Kunming mouse assessed as reduction in Sc3-MP-induced seizure ip dosed measured at 0.5 hrs before Sc3-MP stimulation; type: functional
Mus musculus [15] = assay: Anticonvulsant activity in Kunming mouse assessed as reduction in ScPTZ-induced tonic seizure rate at 300 mg/kg, ip administered 0.5 hrs before ScPTZ stimulation relative to control; type: functional; parameters: scale not given: the % may be the effect or the level left
[16] = as §1, with “formalin-induced paw licking” for “Sc3-MP-induced seizure”, “formalin” for “Sc3-MP”; type: toxicity, organism-based; conditions: in vivo, read-out: PI
Mus musculus [17] = assay: Anticonvulsant activity in Kunming mouse assessed as reduction in ScPTZ-induced seizure at 300 mg/kg, ip administered 0.25 to 2 hrs before ScPTZ stimulation relative to control; type: functional; parameters: scale not given: the % may be the effect or the level left
Mus musculus [18] = assay: Anticonvulsant activity in ip dosed Kunming mouse assessed as reduction in ScPTZ-induced seizure administered 0.5 hrs before ScPTZ stimulation; type: functional
Mus musculus [19] = assay: Anticonvulsant activity in Kunming mouse assessed as reduction in ScPTZ-induced seizure at 100 mg/kg, ip administered 0.25 and 1 hrs before ScPTZ stimulation relative to control; type: functional; parameters: scale not given: the % may be the effect or the level left
[20] = as §1, with “ScPTZ-induced” for “Sc3-MP-induced”, “ScPTZ” for “Sc3-MP”; type: toxicity, organism-based; conditions: in vivo, read-out: PI
Mus musculus [21] = assay: Anticonvulsant activity in Kunming mouse assessed as reduction in Sc3-MP-induced tonic seizure rate at 300 mg/kg, ip administered 0.5 hrs before Sc3-MP stimulation relative to control; type: functional; parameters: scale not given: the % may be the effect or the level left
Mus musculus [22] = assay: Anticonvulsant activity in ip dosed Kunming mouse assessed as MES-induced hind limb extension administered 0.5 hrs before MES stimulation; type: functional
Mus musculus [23] = assay: Anticonvulsant activity in Kunming mouse assessed as reduction in ScPTZ-induced clonic seizure at 300 mg/kg, ip administered 0.5 hrs before ScPTZ stimulation relative to control; type: functional; parameters: scale not given: the % may be the effect or the level left
Mus musculus [24] = assay: […] activity in ip dosed Kunming mouse assessed as reduction in formalin-induced paw licking administered 0.5 hrs before formalin stimulation; type: functional
[25] = Drug metabolism in Sprague-Dawley rat assessed as retention time by HPLC/MS analysis; type: ADME
Mus musculus [26] = assay: Anticonvulsant activity in Kunming mouse assessed as MES-induced hind limb extension at 100 mg/kg, ip administered 3 hrs before MES stimulation; type: functional, organism-based
Mus musculus [27] = assay: Anticonvulsant activity in Kunming mouse assessed as reduction in ScPTZ-induced mortality rate at 300 mg/kg, ip administered 0.5 hrs before ScPTZ stimulation relative to control; type: functional; parameters: scale not given: the % may be the effect or the level left
Mus musculus [28] = assay: Anticonvulsant activity in Kunming mouse assessed as MES-induced hind limb extension at 50 mg/kg, ip administered 0.5 and 2 hrs before MES stimulation relative to control; type: functional

Row | Compound | Activity [1] | inhibition (Homo sapiens [2]) | Activity (Mus musculus [3]) | Activity (Mus musculus [4]) | inhibition (Homo sapiens [5]) | TD50 at 0.5 h [8] | selectivity ratio at 0.5 h [16] | ED50 (Mus musculus [18]) | selectivity ratio at 0.5 h [20] | ED50 (Mus musculus [22]) | ED50 (Mus musculus [24]) | Activity (Mus musculus [26]) | further results
1 | COc1cc(/C=C/C(=O)OC/C=C/c2cc(OC)c(OC)cc2OC)cc(OC)c1 | Non-Toxic | inactive | 25 - 100% | Active | inactive |  |  |  |  |  |  |  | 
2 | COc1cc(OC)c(OC)cc1/C=C/CNC(=O)/C=C/c1cc(OC)c(OC)c(OC)c1 | Non-Toxic | 9% | 25 - 100% | Active | < 5% |  |  |  |  |  |  |  | 
3 | COc1cc(/C=C/C(=O)O)cc(OC)c1OC [SINAPIC ACID METHYL ETHER] | Non-Toxic |  |  | Active |  |  |  |  |  |  |  |  | 
4 | COc1cc(OC)c(OC)cc1/C=C/COC(=O)/C=C/c1c(OC)c(OC)cc(OC)c1OC | Non-Toxic | Active | 25 - 100% | Active | Active | > 2110 µmol/kg and > 1000 mg/kg | 19.7 | 149 mg/kg and 314 µmol/kg | 6.7 | 122 µmol/kg and 57.9 mg/kg | 50.8 mg/kg and 107 µmol/kg |  | selectivity ratio at 0.5 h [6]: > 17.3; Activity (Mus musculus [7]): 50%; selectivity ratio at 0.5 h [9]: 5; Activity (Mus musculus [10]): 100%; Activity (Mus musculus [11]): 100%; Activity (Mus musculus [12]): 25%; Activity (Mus musculus [13]): 25%; ED50 (Mus musculus [14]): > 300 mg/kg and > 632 µmol/kg; Activity (Mus musculus [15]): 25%; Activity (Mus musculus [17]): 50%; Activity (Mus musculus [19]): 75%; Activity (Mus musculus [21]): 75%; Activity (Mus musculus [23]): 100%
5 | COc1cc(OC)c(OC)cc1/C=C/C(=O)O |  |  |  |  |  |  |  |  |  |  |  |  | Retention_time [25]: 79.8 min
6 | COc1cc(OC)c(OC)cc1/C=C/COC(=O)/C=C/c1ccccc1Br | Non-Toxic | < 9% | inactive | Active | < 5% |  |  |  |  |  |  |  | 
7 | COC[C@@H](NC(C)=O)C(=O)NCc1ccccc1 [LACOSAMIDE] |  |  |  |  |  | 135 µmol/kg | 2.2 | > 500 mg/kg and > 2000 µmol/kg | < 0.1 | 37.6 µmol/kg and 9.4 mg/kg | 15 mg/kg and 0.1 µmol/kg |  | 
8 | COc1cc(OC)c(OC)cc1CCCOC(=O)/C=C/c1cc(OC)c(OC)c(OC)c1 | Non-Toxic | 9% | 25 - 100% | Active | < 5% |  |  |  |  |  |  | Active | 
9 | COc1cc(OC)c(OC)cc1/C=C/COC(=O)/C=C/c1ccc(Br)cc1 | Non-Toxic | < 9% | 25 - 100% | Active | < 5% | 2440 µmol/kg and 1060 mg/kg | 10.1 | 446 µmol/kg and 193 mg/kg | 5.5 | 61.8 mg/kg and 143 µmol/kg | 105 mg/kg and 243 µmol/kg | Active | selectivity ratio at 0.5 h [6]: 17.1; Activity (Mus musculus [7]): 50%; selectivity ratio at 0.5 h [9]: 5; Activity (Mus musculus [10]): 100%; Activity (Mus musculus [11]): 100%; Activity (Mus musculus [12]): inactive; Activity (Mus musculus [13]): 100%; ED50 (Mus musculus [14]): > 300 mg/kg and > 692 µmol/kg; Activity (Mus musculus [15]): 25%; Activity (Mus musculus [17]): 50%; Activity (Mus musculus [19]): 75%; Activity (Mus musculus [27]): 0%; Activity (Mus musculus [21]): 75%; Activity (Mus musculus [23]): 100%
10 | COc1ccc(OC)c(/C=C/C(=O)OC/C=C/c2cc(OC)c(OC)cc2OC)c1 | Non-Toxic |  | 25 - 100% | Active |  |  |  |  |  |  |  | Active | 
11 | COc1cc(OC)c(OC)cc1/C=C/COC(=O)/C=C/c1ccccc1C(F)(F)F | Non-Toxic | < 9% | 25 - 100% | Active | < 5% | > 2370 µmol/kg and > 1000 mg/kg | > 8.1 | > 200 mg/kg and > 474 µmol/kg | 5 | 85.7 mg/kg and 203 µmol/kg | 123 mg/kg and 291 µmol/kg | Active | selectivity ratio at 0.5 h [6]: > 11.7; selectivity ratio at 0.5 h [9]: 3.3; Activity (Mus musculus [28]): inactive; Activity (Mus musculus [10]): 100%; Activity (Mus musculus [11]): 100%; Activity (Mus musculus [12]): inactive; Activity (Mus musculus [13]): 100%; ED50 (Mus musculus [14]): > 300 mg/kg and > 710 µmol/kg; Activity (Mus musculus [15]): 50%; Activity (Mus musculus [17]): 50%; Activity (Mus musculus [27]): 0%; Activity (Mus musculus [21]): 75%; Activity (Mus musculus [23]): 100%
12 | COc1cc(OC)c(OC)c(OC)c1/C=C/C(=O)O[C@@H]1O[C@H](C(=O)O)[C@@H](O)[C@H](O)[C@H]1O |  |  |  |  |  |  |  |  |  |  |  |  | Retention_time [25]: 55.2 min
13 | COc1cc(OC)c(OC)cc1/C=C/C(=O)O[C@@H]1O[C@H](C(=O)O)[C@@H](O)[C@H](O)[C@H]1O |  |  |  |  |  |  |  |  |  |  |  |  | Retention_time [25]: 50.1 min
